Measurements as given in patent US12577206B2 (BRISTOL-MYERS SQUIBB COMPANY, priority 2020, dated 2026).

What was measured:
human FPR1 = biological target: T1, human FPR1 (Homo sapiens, UniProt P21462); experiment: FPR1 cyclic adenosine monophosphate (cAMP) assay; format: cell-based; settings: CHO cells overexpressing human FPR1; forskolin 10 μM; inhibition of cAMP production; HTRF; read-out: hFPR1 cAMP2 EC50
T1 sequence (P21462 1-350): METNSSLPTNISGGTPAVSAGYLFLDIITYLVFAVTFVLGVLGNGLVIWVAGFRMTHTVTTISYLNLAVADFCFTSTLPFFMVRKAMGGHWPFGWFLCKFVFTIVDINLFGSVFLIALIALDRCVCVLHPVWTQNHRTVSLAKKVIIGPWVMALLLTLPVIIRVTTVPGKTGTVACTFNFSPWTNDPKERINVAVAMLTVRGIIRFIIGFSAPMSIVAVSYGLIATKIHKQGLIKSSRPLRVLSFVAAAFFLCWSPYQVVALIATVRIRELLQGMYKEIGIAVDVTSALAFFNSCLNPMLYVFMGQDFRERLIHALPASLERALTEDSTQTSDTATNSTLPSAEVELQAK
In short: (§1)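 CHO cells overexpressing human FPR1 (4,000/well) or FPR2 (2,000/well) were incubated 30 min at room temperature with compound (0.020 nM to 100 μM, 1% DMSO), IBMX 200 μM, and forskolin at 10 μM (FPR1) or 5 μM (FPR2), all final. HTRF cAMP read-out; inhibition fitted by 4-parameter logistic equation.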

human FPR2 = biological target: T2, human FPR2 (Homo sapiens, UniProt P25090); experiment: FPR2 cyclic adenosine monophosphate (cAMP) assay; format: cell-based; settings: CHO cells overexpressing human FPR2; forskolin 5 μM; inhibition of cAMP production; HTRF; read-out: hFPR2 cAMP2 EC50
T2 sequence (P25090 1-351): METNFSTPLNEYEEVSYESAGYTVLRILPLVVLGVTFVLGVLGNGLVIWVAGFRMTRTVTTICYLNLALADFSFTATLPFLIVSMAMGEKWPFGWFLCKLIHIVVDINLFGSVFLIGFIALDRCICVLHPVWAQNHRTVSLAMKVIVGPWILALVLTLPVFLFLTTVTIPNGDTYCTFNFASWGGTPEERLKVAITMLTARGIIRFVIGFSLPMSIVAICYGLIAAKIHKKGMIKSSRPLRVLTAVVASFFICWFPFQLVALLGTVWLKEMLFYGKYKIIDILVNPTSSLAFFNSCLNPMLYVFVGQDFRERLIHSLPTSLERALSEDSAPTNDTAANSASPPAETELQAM
In short: as §1

Structure (SMILES)	EC50 (human FPR1) [nM]	EC50 (human FPR2) [nM]
CCOc1ccnc(-n2c(=O)c(NC(=O)c3ccc(OC(F)F)cc3)c(-c3c(F)cc(OC)cc3F)n2C)c1 [Example 78, N-[5-(2,6-difluoro-4-methoxyphenyl)-2-(4-ethoxypyridin-2-yl)-1-methyl-3-oxo-2,3-dihydro-1H-pyrazol-4-yl]-4-(difluoromethoxy)benzamide]	9500	10
COc1cc(F)c(-c2c(NC(=O)c3ccc(OC(F)F)cc3)c(=O)n(-c3cccc(N4CCOCC4)n3)n2C)c(F)c1 [Example 79, N-[5-(2,6-difluoro-4-methoxyphenyl)-1-methyl-2-[6-(morpholin-4-yl)pyridin-2-yl]-3-oxo-2,3-dihydro-1H-pyrazol-4-yl]-4-(difluoromethoxy)benzamide]	> 10000	10
COc1cc(F)c(-c2c(NC(=O)c3ccc(OC(F)F)cc3)c(=O)n(-c3cccc(N4CCCCC4)n3)n2C)c(F)c1 [Example 80, N-[5-(2,6-difluoro-4-methoxyphenyl)-1-methyl-3-oxo-2-[6-(piperidin-1-yl)pyridin-2-yl]-2,3-dihydro-1H-pyrazol-4-yl]-4-(difluoromethoxy)benzamide]	1300	2
COc1cc(F)c(-c2c(NC(=O)c3ccc(OC(F)F)cc3)c(=O)n(-c3cccc(CO)n3)n2C)c(F)c1 [Example 81, N-[5-(2,6-difluoro-4-methoxyphenyl)-2-[6-(hydroxymethyl)pyridin-2-yl]-1-methyl-3-oxo-2,3-dihydro-1H-pyrazol-4-yl]-4-(difluoromethoxy)benzamide]	> 10000	17
COc1cc(F)c(-c2c(NC(=O)c3ccc(OC(F)F)cc3)c(=O)n(-c3cccc(N(C)C)n3)n2C)c(F)c1 [Example 82, N-[5-(2,6-difluoro-4-methoxyphenyl)-2-[6-(dimethylamino)pyridin-2-yl]-1-methy-3-oxo-2,3-dihydro-1H-pyrazol-4-yl]-4-(difluoromethoxy)benzamide]	520	2
COc1cc(F)c(-c2c(NC(=O)c3ccc(OC(F)F)cc3)c(=O)n(-c3cccc(N4CCN(C)CC4)n3)n2C)c(F)c1 [Example 83, N-[5-(2,6-difluoro-4-methoxyphenyl)-1-methyl-2-[6-(4-methylpiperazin-1-yl)pyridin-2-yl]-3-oxo-2,3-dihydro-1H-pyrazol-4-yl]-4-(difluoromethoxy)benzamide]	> 10000	2
COc1cc(F)c(-c2c(NC(=O)c3ccc(OC(F)F)cc3)c(=O)n(-c3cccc(NC(=O)C(C)(C)C)n3)n2C)c(F)c1 [Example 84, N-[5-(2,6-difluoro-4-methoxyphenyl)-2-[6-(2,2-dimethylpropanamido)pyridin-2-yl]-1-methyl-3-oxo-2,3-dihydro-1H-pyrazol-4-yl]-4-(difluoromethoxy)benzamide]	82	5
COc1cc(F)c(-c2c(NC(=O)c3ccc(OC(F)F)cc3)c(=O)n(-c3cccc(C(C)(C)O)n3)n2C)c(F)c1 [Example 85]	750	5
COc1cc(F)c(-c2c(NC(=O)c3ccc(OC(F)F)cc3)c(=O)n(-c3cccc(C(C)O)n3)n2C)c(F)c1 (stereo not drawn) [Example 86, N-[5-(2,6-difluoro-4-methoxyphenyl)-2-[6-(1-hydroxyethyl)pyridin-2-yl]-1-methyl-3-oxo-2,3-dihydro-1H-pyrazol-4-yl]-4-(difluoromethoxy)benzamide]	1400	10
COc1cc(F)c(-c2c(NC(=O)c3ccc(OC(F)F)cc3)c(=O)n(-c3cccc(C4(O)CCC4)n3)n2C)c(F)c1 [Example 87, N-(5-(2,6-difluoro-4-methoxyphenyl)-2-(6-(1-hydroxycyclobutyl)pyridin-2-yl)-1-methyl-3-oxo-2,3-dihydro-1H-pyrazol-4-yl)-4-(difluoromethoxy)benzamide]	780	4
COc1cc(C2CC2)nc(-n2c(=O)c(NC(=O)c3ccc(OC(F)F)cc3)c(-c3c(F)cc(OC)cc3F)n2C)c1 [Example 88, N-(2-(6-cyclopropyl-4-methoxypyridin-2-yl)-5-(2,6-difluoro-4-methoxyphenyl)-1-methyl-3-oxo-2,3-dihydro-1H-pyrazol-4-yl)-4-(difluoromethoxy)benzamide]	6300	2
COc1cc(-n2c(=O)c(NC(=O)c3ccc(OC(F)F)cc3)c(-c3c(F)cc(OC)cc3F)n2C)nc(C(C)(C)O)c1 [Example 89, N-[5-(2,6-difluoro-4-methoxyphenyl)-2-[6-(2-hydroxypropan-2-yl)-4-methoxypyridin-2-yl]-1-methyl-3-oxo-2,3-dihydro-1H-pyrazol-4-yl]-4-(difluoromethoxy)benzamide]	900	3
COc1cc(N2C[C@@H](C)O[C@@H](C)C2)nc(-n2c(=O)c(NC(=O)c3ccc(OC(F)F)cc3)c(-c3c(F)cc(OC)cc3F)n2C)c1 [Example 92, N-[5-(2,6-difluoro-4-methoxyphenyl)-2-{6-[(2R,6S)-2,6-dimethylmorpholin-4-yl]-4-methoxypyridin-2-yl}-1-methyl-3-oxo-2,3-dihydro-1H-pyrazol-4-yl]-4-(difluoromethoxy)benzamide]	2100	16
COc1cc(N2C[C@@H](C)N(C)[C@@H](C)C2)nc(-n2c(=O)c(NC(=O)c3ccc(OC(F)F)cc3)c(-c3c(F)cc(OC)cc3F)n2C)c1 [Example 93, N-[5-(2,6-difluoro-4-methoxyphenyl)-2-{4-methoxy-6-[(3R,5S)-3,4,5-trimethylpiperazin-1-yl]pyridin-2-yl}-1-methyl-3-oxo-2,3-dihydro-1H-pyrazol-4-yl]-4-(difluoromethoxy)benzamide]	1800	2
COc1cc(N2CC[C@H](O)C2)nc(-n2c(=O)c(NC(=O)c3ccc(OC(F)F)cc3)c(-c3c(F)cc(OC)cc3F)n2C)c1 [Example 97, N-[5-(2,6-difluoro-4-methoxyphenyl)-2-{6-[(3S)-3-hydroxypyrrolidin-1-yl]-4-methoxypyridin-2-yl}-1-methyl-3-oxo-2,3-dihydro-1H-pyrazol-4-yl]-4-(difluoromethoxy)benzamide]	3400	3
COc1cc(-n2c(=O)c(NC(=O)c3ccc(OC(F)F)cc3)c(-c3c(F)cc(OC)cc3F)n2C)nc(C2(O)CCC2)c1 [Example 100, N-[5-(2,6-difluoro-4-methoxyphenyl)-2-[6-(1-hydroxycyclobutyl)-4-methoxypyridin-2-yl]-1-methyl-3-oxo-2,3-dihydro-1H-pyrazol-4-yl]-4-(difluoromethoxy)benzamide]	1600	2
COc1cc(F)c(-c2c(NC(=O)c3ccc(OC(F)F)cc3)c(=O)n(-c3cccc(N4CC[C@H](O)C4)n3)n2C)c(F)c1 [Example 102, N-[5-(2,6-difluoro-4-methoxyphenyl)-2-{6-[(3S)-3-hydroxypyrrolidin-1-yl]pyridin-2-yl}-1-methyl-3-oxo-2,3-dihydro-1H-pyrazol-4-yl]-4-(difluoromethoxy)benzamide]	1000	2
COc1cc(F)c(-c2c(NC(=O)c3ccc(OC(F)F)cc3)c(=O)n(-c3cccc(N4CC(F)(F)C4)n3)n2C)c(F)c1 [Example 104, N-[5-(2,6-difluoro-4-methoxyphenyl)-2-[6-(3,3-difluoroazetidin-1-yl)pyridin-2-yl]-1-methyl-3-oxo-2,3-dihydro-1H-pyrazol-4-yl]-4-(difluoromethoxy)benzamide]	6200	3
COc1cc(F)c(-c2c(NC(=O)c3ccc(OC(F)F)cc3)c(=O)n(-c3cc(C)cc(C)c3)n2C)c(F)c1 [Example 109, N-[5-(2,6-difluoro-4-methoxyphenyl)-2-(3,5-dimethylphenyl)-1-methyl-3-oxo-2,3-dihydro-1H-pyrazol-4-yl]-4-(difluoromethoxy)benzamide]	8100	11
COc1cc(F)c(-c2c(NC(=O)c3ccc(OC(F)F)cc3)c(=O)n(-c3cccc(C#N)c3)n2C)c(F)c1 [Example 110, N-[2-(3-cyanophenyl)-5-(2,6-difluoro-4-methoxyphenyl)-1-methyl-3-oxo-2,3-dihydro-1H-pyrazol-4-yl]-4-(difluoromethoxy)benzamide]	37	9
COc1cc(F)c(-c2c(NC(=O)c3ccc(OC(F)F)cc3)c(=O)n(-c3cccc(C4CC4)c3)n2C)c(F)c1 [Example 111, N-[2-(3-cyclopropylphenyl)-5-(2,6-difluoro-4-methoxyphenyl)-1-methyl-3-oxo-2,3-dihydro-1H-pyrazol-4-yl]-4-(difluoromethoxy)benzamide]	2	4
